Measurements published in PMC6112376, “Comprehensive Analyses and Prioritization of Tox21 10K Chemicals Affecting Mitochondrial Function by in-Depth Mechanistic Studies” (Environmental Health Perspectives, 2018).
Where two headings read alike, the source gives them in different places.

Key:
hNSC = test: MMP assay in human neural stem cells (hNSC); type: cell-based; conditions: Homo sapiens, Neural stem cell, 1 h, read-out: hNSC IC50 (MMP)
HepG2 cells [1] = test: ROS-Glo hydrogen peroxide (ROS) assay; type: cell-based, human
HepG2 cells [2] = test: Intracellular ATP content (cell viability) assay; type: cell-based, human; conditions: Homo sapiens, HepG2, 40 h
[3] = test system: p53 (p53-bla HCT-116 cells); test: p53 β-lactamase reporter gene assay; type: cell-based, human; conditions: Homo sapiens; 16 h incubation; mean±SD of three experiments
[4] = test system: Nrf2/ARE (ARE-bla HepG2 cells); test: ARE β-lactamase reporter gene assay; type: cell-based, human; conditions: 16 h incubation; mean±SD of three experiments
[5] = test system: isolated rat liver mitochondria; test: Oxygen consumption, Clark-type oxygen electrode; type: biochemical
[6] = test system: HeLa cells expressing YFP-Parkin; test: Parkin translocation assay; type: cell-based, human
rat primary hepatocytes [7] = test system: rat primary hepatocytes
HepG2 cells [8] = conditions: cited from earlier work
HepG2 cells [9] = test: cells; conditions: Homo sapiens
[10] = test system: Caenorhabditis elegans strain PE255; test: In vivo C. elegans ATP status assay
rat primary hepatocytes [11] = test: MMP assay in rat primary hepatocytes; conditions: Rattus norvegicus, Hepatocyte, 1 h
[12] = test system: Caenorhabditis elegans (Bristol N2); test: C. elegans larval development and growth assay

## O=C(Nc1ccc([N+](=O)[O-])cc1Cl)c1cc(Cl)ccc1O [Niclosamide, reference compound]
hNSC
  IC50: 420 nM
HepG2 cells [1]
  ROS (HepG2) EC50: Inactive
HepG2 cells [2]; read-out: ATP (HepG2, galactose) IC50
  IC50: 2260 nM
HepG2 cells [2]; read-out: ATP (HepG2, glucose) IC50
  IC50: 2010 nM
[3]
  EC50: 580 ± 490 nM
[4]
  ARE (HepG2) EC50: Inactive
[5]
  Potential Mechanism: Uncoupler at low concentrations (0.064-0.16 µM), and Uncoupler + inhibitor at high concentrations (0.8-100 µM)
[5]; 0.00128 µM
  I-ADP, % of control (O2 consumption rate): 85 (30.5) % of control
  I-sub, % of control (O2 consumption rate): 109 (10.5) % of control
  II-ADP, % of control (O2 consumption rate): 92 (49.0) % of control
  II-sub, % of control (O2 consumption rate): 108 (17.7) % of control
[5]; 0.0064 µM
  I-ADP, % of control (O2 consumption rate): 88 (31.4) % of control
  I-sub, % of control (O2 consumption rate): 125 (12.0) % of control
  II-ADP, % of control (O2 consumption rate): 87 (46.4) % of control
  II-sub, % of control (O2 consumption rate): 109 (17.9) % of control
[5]; 0.032 µM
  I-ADP, % of control (O2 consumption rate): 103 (36.6) % of control
  I-sub, % of control (O2 consumption rate): 192 (18.4) % of control
  II-ADP, % of control (O2 consumption rate): 89 (47.7) % of control
  II-sub, % of control (O2 consumption rate): 132 (21.7) % of control
[5]; 0.16 µM
  I-ADP, % of control (O2 consumption rate): 126 (45.0) % of control
  I-sub, % of control (O2 consumption rate): 419 (40.2) % of control
  II-ADP, % of control (O2 consumption rate): 92 (49.0) % of control
  II-sub, % of control (O2 consumption rate): 230 (37.8) % of control
[5]; 0.8 µM
  I-ADP, % of control (O2 consumption rate): 85 (30.2) % of control
  I-sub, % of control (O2 consumption rate): 308 (29.6) % of control
  II-ADP, % of control (O2 consumption rate): 53 (28.1) % of control
  II-sub, % of control (O2 consumption rate): 204 (33.5) % of control
[5]; 4 µM
  I-ADP, % of control (O2 consumption rate): 70 (25.1) % of control
  I-sub, % of control (O2 consumption rate): 276 (26.5) % of control
  II-ADP, % of control (O2 consumption rate): 39 (21.1) % of control
  II-sub, % of control (O2 consumption rate): 147 (24.1) % of control
[5]; 20 µM
  I-ADP, % of control (O2 consumption rate): 79 (28.1) % of control
  I-sub, % of control (O2 consumption rate): 308 (29.6) % of control
  II-ADP, % of control (O2 consumption rate): 37 (19.6) % of control
  II-sub, % of control (O2 consumption rate): 145 (23.8) % of control
[5]; 100 µM
  I-ADP, % of control (O2 consumption rate): 93 (42.6) % of control
  I-sub, % of control (O2 consumption rate): 296 (45.9) % of control
  II-ADP, % of control (O2 consumption rate): 44 (31.3) % of control
  II-sub, % of control (O2 consumption rate): 119 (37.3) % of control
[6]
  Parkin recruitment: Active
Rat primary hepatocytes [7]
  MMP assays efficacy (%) Rat Hepatocytes: -112±30%
  Rat hepatocytes (efficacy) (MMP): 1.36±0.16 ( −107±13.5 ) %
HepG2 cells [8]
  MMP assays efficacy (%) qHTS-HepG2: -98±4%
HepG2 cells [8]; read-out: MMP assays IC50 (µM), qHTS-HepG2
  IC50: 0.03 ± 0.01 µM
HepG2 cells [9]; HepG2, 1 h, read-out: HepG2 IC50 Galactose (MMP)
  IC50: 1470 nM
HepG2 cells [9]; HepG2, 1 h, read-out: HepG2 IC50 Glucose (MMP)
  IC50: 870 nM
HepG2 cells [9]; HepG2, read-out: IC50 in HepG2 cells (MMP, tier-one retest)
  IC50: 100 nM
HepG2 cells [9]; HepG2, read-out: MMP assays efficacy (%) HepG2
  Emax: 87%
[10]; 0.5 µM
  LUM: mean difference in luminescence (ATP content) relative to plate controls: 0.1961
[10]; 1 µM
  LUM: mean difference in luminescence (ATP content) relative to plate controls: 0.1905
[10]; 5 µM
  LUM: mean difference in luminescence (ATP content) relative to plate controls: 0.2783
[10]; 10 µM
  LUM: mean difference in luminescence (ATP content) relative to plate controls: 0.1333
[10]; 25 µM
  LUM: mean difference in luminescence (ATP content) relative to plate controls: 0.2438
[10]; 50 µM
  LUM: mean difference in luminescence (ATP content) relative to plate controls: 0.3
[10]; 75 µM
  LUM: mean difference in luminescence (ATP content) relative to plate controls: 0.12
[10]; 100 µM
  LUM: mean difference in luminescence (ATP content) relative to plate controls: 0.1413
Rat primary hepatocytes [11]; read-out: IC50 in rat primary hepatocytes (MMP, tier-one retest)
  IC50: 440 nM
Rat primary hepatocytes [11]; read-out: Rat hepatocytes IC50 (MMP)
  IC50: 1360 nM
[12]; 0.5 µM
  EXT: mean difference in nematode size relative to plate controls: 0.005018
[12]; 1 µM
  EXT: mean difference in nematode size relative to plate controls: -0.03083
[12]; 5 µM
  EXT: mean difference in nematode size relative to plate controls: -0.00657
[12]; 10 µM
  EXT: mean difference in nematode size relative to plate controls: 0.2753
[12]; 25 µM
  EXT: mean difference in nematode size relative to plate controls: 0.1226
[12]; 50 µM
  EXT: mean difference in nematode size relative to plate controls: 0.2162
